Assay results published in patent US20090054403A1, “Treatment of Post-Traumatic Stress Disorder” (priority 2007, published 2009).

Legend:
[1] = test system: sympathetically mediated pressor response; experiment: Pressor response to pre-ganglionic nerve stimulation in pithed SHR; format: in vivo, spontaneously hypertensive rats (SHR)
Protocol: Hemodynamic study in SHR. Male SHR (15-16 week old) were used in the study. The animals were lightly anesthetized with ether and the left femoral artery and vein were catheterized for measurement of blood pressure and drug administration, respectively. The animals were placed in restrainers and allowed to recover for 30-40 min. […] The animals were then anesthetized with pentobarbital, placed on a heating pad (37° C.) and ventilated with a Harvard rodent ventilator. After administration of atropine (1 mg/kg, iv) and tubocurarine (1 mg/kg, iv), the animals were pithed through the orbit of the eye with a stainless steel rod. The […] rod was stimulated electrically with 1 ms pulses of 80V at different frequencies (0.15, 0.45, 1.5, 5, 15 Hz) to obtain frequency-pressor response curves.

blood pressure = experiment: Radio-telemetry blood pressure in SHR, up to 30 days; format: in vivo
bovine DBH = target: T1, bovine DBH (Bos taurus, UniProt P15101); experiment: Bovine DBH inhibition kinetics, [14C]tyramine radioactive method; format: biochemical
T1 construct: Bovine DBH from adrenal glands was obtained from Sigma Chemicals; purchased Sigma Chemicals (St Louis, Mo.); host or cells: bovine adrenal glands
Protocol: Enzyme Assay by Radioactive Method. Enzymatic activity was assayed using [^14C]tyramine as substrate and a C18 column to separate the product. The assay was performed in […] volume containing 100 mM NaAc, pH 5.2, 10 mM fumaric acid, 0.5 μM CuSO4, 4 mM ascorbic acid, 0.1 mg/ml catalase and various concentrations of tyramine. The total counts of each reaction was ˜15,000 cpm. Bovine DBH (0.18 ng for each reaction) was mixed with tyramine and inhibitor in the reaction buffer at 37° C. The reaction was initiated by the addition of ascorbate/catalase mixture and was incubated at 37° C. for 30 minutes. The reaction was stopped by the addition of […] of 25 mM EDTA, 50 mM KH2PO4, pH 2.3. Entire mixture was loaded to a C18 light load column (two combined into one) that was pre-washed with MeOH and equilibrated with 50 mM KH2PO4, pH 2.3. Elution into scintillation vials was carried out with 1 ml of KH2PO4, pH 2.3 buffer twice, followed by 2 ml of the same buffer. ReadySafe scintillation fluid (16 ml) was added to the scintillation vials and the samples were counted for ^14C radioactivity.
Nepicastat concentrations of 0, 1, 2, 4, 8 nM were used to study inhibition kinetics at the following tyramine concentrations: 0.5, 1, 2, 3, 4 mM. […] Km′ was calculated from the slopes and Y intercepts and linear regression was used to obtain Ki value.

plasma NE, DA and EPI = experiment: Plasma catecholamines in beagle dogs, 2 mg/kg b.i.d. for 14.5 days; format: in vivo
Protocol: A separate study was conducted in dogs to determine the effects of chronic administration of 2a on the plasma DA/NE ratio. Animals were randomized to receive, orally, either placebo (empty capsule) or 2a (2 mg/kg, b.i.d) for 14.5 days. Daily blood samples were drawn, 6 h after the first dose, for the measurement of plasma concentrations of DA and NE. The samples were collected in tubes containing heparin and glutathione, centrifuged at […] and stored at −70° C. until analysis.
Male Beagle dogs (Marshall farms, North Rose, N.Y.) weighing between 9-16 kg were used in the study. The animals were allowed water ad libitum and given food once daily at ˜10.00 AM. Animals were randomly assigned to one of the following treatment groups (n=8/group): placebo (empty capsule), or nepicastat at 2 mg/kg b.i.d (4 mg/kg/day). Each animal received 2 doses daily, morning and afternoon (8-10 hours apart). Daily blood samples (10 ml) were drawn 6 h after the AM dose for measurement of plasma levels of nepicastat and catecholamines. The blood was collected in tubes containing heparin and glutathione and centrifuged at −4° C. within 1 h of collection. The plasma was separated and divided into two samples, one for the measurement of plasma catecholamines and the other for analysis of nepicastat.
Plasma NE, DA and EPI were anaylysed by HPLC using electrochemical detection. Plasma concentration of nepicastat was determined by HPLC using electrochemical detection.
The BQL (below quantitation limit) in the DA concentration of dog 1 at day 10 was set to 0; ln (0) was set to missing. The analysis was performed using a mixed model (using PROC MIXED) with the day and treatment categorical variables being fixed and the dog within treatment being a random factor. For the fixed effects, the interaction between the day and the treatment was included, since the difference between the drug and placebo groups varies from day to day. Contrasts were calculated using the CONTRAST statement, which correctly takes into account the error terms for each particular contrast. In particular, the contrasts comparing the […] uses the dog mean square for its error term, while the comparisons used to establish steady state are all within dog comparisons, and require the error mean square.
The time period of steady state was calculated using the Helmert transformation (cf. SAS PROC GLM manual). These transformations compare each treatment mean with the average of the treatment means of the time points following. The steady state period is defined to start at the first time point following the maximum time at which the Helmert contrast is statistically significant. However, since this method can fail to detect a smoothly changing process, as appears might be the case here, the slope of the analyte concentration during the steady state period also was calculated. The slope during the steady state period was calculated for each dog individually, yielding one slope per animal. Univariate statistics on the slopes were then calculated, with Normal theory confidence intervals built on the mean slope, and the hypothesis of slope equalling zero was tested, and its Normal theory p-value was calculated. This slope analysis was used as the basis for determining whether the steady state period was a period of changing concentration.

T1 sequence (P15101 whole entry): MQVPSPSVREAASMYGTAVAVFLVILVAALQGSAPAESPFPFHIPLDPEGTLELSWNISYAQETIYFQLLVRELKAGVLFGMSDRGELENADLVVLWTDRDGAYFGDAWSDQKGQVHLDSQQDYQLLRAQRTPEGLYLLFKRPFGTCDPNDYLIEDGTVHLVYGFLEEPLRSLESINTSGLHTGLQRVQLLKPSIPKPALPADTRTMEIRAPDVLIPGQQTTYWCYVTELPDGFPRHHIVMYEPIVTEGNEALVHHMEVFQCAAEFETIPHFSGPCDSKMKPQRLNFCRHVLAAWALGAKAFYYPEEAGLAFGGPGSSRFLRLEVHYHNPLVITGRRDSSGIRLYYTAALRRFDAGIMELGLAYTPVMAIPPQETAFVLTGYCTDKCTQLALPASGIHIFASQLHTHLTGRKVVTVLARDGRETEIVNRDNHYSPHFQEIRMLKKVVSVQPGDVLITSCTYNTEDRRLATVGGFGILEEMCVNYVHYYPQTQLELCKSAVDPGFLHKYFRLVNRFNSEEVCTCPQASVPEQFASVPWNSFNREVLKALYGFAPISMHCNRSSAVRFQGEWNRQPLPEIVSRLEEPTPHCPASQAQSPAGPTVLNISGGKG

SMILES: Cl.NCc1c[nH]c(=S)n1[C@H]1CCc2c(F)cc(F)cc2C1 [nepicastat, (S)-5-Aminomethyl-1-(5,7-difluoro-1,2,3,4-tetrahydronaphth-2-yl)-2,3-dihydro-2-thioxo-1H-imidazole hydrochloride]
- responses to preganglionic nerve stimulation ([1]; 3 mg/kg p.o., 5 hours after dosing): significantly attenuated the hypertensive and tachycardic responses
- maximum shift of the frequency-pressor response curve ([1]; 5 h after oral dosing): 5 fold
- peak decrease in blood pressure (blood pressure; 30 mg/kg/d): −20 mmHg
- peak decrease in blood pressure (blood pressure; 100 mg/kg/d): −42 mmHg
- effect on blood pressure (blood pressure; 3 and 10 mg/kg/d): no significant effects
- effect on blood pressure (blood pressure; 30 and 100 mg/kg/d for 30 days): significantly lowered blood pressure
- effect on blood pressure of nepicastat 30 mg/kg combined with enalapril 1 mg/kg p.o. (blood pressure; 30 days of dosing): potentiation of the antihypertensive effects
- left ventricular mass, nepicastat 30 mg/kg combined with enalapril 1 mg/kg p.o. (blood pressure; 30 days of dosing): significant reduction in left ventricular mass
- motor activity (blood pressure; 30 days of dosing): unaffected
- type of inhibition (bovine DBH; nepicastat 1-8 nM, tyramine 0.5-4 mM): competitive with tyramine
- Ki (bovine DBH; vs tyramine, linear regression of apparent Km): 4.7 ± 0.4 nM
- day of peak decrease in plasma EPI (plasma NE, DA and EPI; 2 mg/kg b.i.d.): 8 days
- day of peak decrease in plasma NE (plasma NE, DA and EPI; 2 mg/kg b.i.d.): 6 days
- day of peak increase in plasma DA (plasma NE, DA and EPI; 2 mg/kg b.i.d.): 7 days
- day of peak increase in plasma DA/NE ratio (plasma NE, DA and EPI; 2 mg/kg b.i.d.): 6 days
- decrease in plasma EPI vs placebo (plasma NE, DA and EPI; 2 mg/kg b.i.d.): 1.91 fold
- decrease in plasma NE vs placebo (plasma NE, DA and EPI; 2 mg/kg b.i.d.): 2.1 fold
- increase in plasma DA vs placebo (plasma NE, DA and EPI; 2 mg/kg b.i.d.): 7.5 fold
- increase in plasma DA/NE ratio vs placebo (plasma NE, DA and EPI; 2 mg/kg b.i.d.): 13.6 fold
- time to steady-state of effect on plasma DA (plasma NE, DA and EPI; 2 mg/kg b.i.d.): ~8 days post-dose
- time to steady-state of effect on plasma EPI (plasma NE, DA and EPI; 2 mg/kg b.i.d.): ~6 days post-dose
- time to steady-state of effect on plasma NE (plasma NE, DA and EPI; 2 mg/kg b.i.d.): approximately 4 days post-dose
- peak reduction in plasma concentration of noradrenaline (plasma NE, DA and EPI; 2 mg/kg b.i.d. po, day-6 of dosing): 52%
- peak increase in plasma concentration of dopamine (plasma NE, DA and EPI; 2 mg/kg b.i.d. po, day-7 of dosing): 646%
- time to peak effect on plasma DA/NE ratio (plasma NE, DA and EPI; 2 mg/kg b.i.d., 14.5 day treatment): 6 to 7 days
